This is an account of results in article PMC12250754, “Phytochemical Screening and Biological Activities of Lippia multiflora Moldenke” (Molecules, 2025).

In brackets after ≈: the same amount, converted by molar mass. Like-named read-outs stand apart in the source and are kept apart here. Marks after values point to notes of the source that are not given here.

The nature of one assay: Reducing power assay. Particulars: mean ± SD, n = 3. The method, then:
The reducing capacity of the crude extracts was estimated as described by Pereira et al. (2013). Fifty microliters of the crude extracts were mixed with fifty microliters of sodium phosphate buffer (0.2 M, pH 6.6). After serial dilution, a potassium hexacyanoferrate (1% aqueous, 50 μL) solution was added. A trichloroacetic acid (10%, 50 μL) solution was added after 20 min of incubation at 50 °C. Eighty microliters of each mixture was moved to another 96-well plate containing eighty microliters of distilled water. […] All the crude extracts were tested in triplicate.

The nature of assay [1]: DPPH free radical scavenging assay. Particulars: mean ± SD, n = 3.
Experimental: The DPPH free radical scavenging ability was evaluated for the crude extracts using the DPPH (2,2-diphenyl-1-picrylhydrazyl) assay using a modified spectrophotometric method of Motamed and Naghibi (2010) [81]. The crude extracts (100 µL) were added to a 96-well plate containing distilled water (100 µL). After serial dilution, a 0.3 M DPPH/methanol (200 µL) solution was added to the mixture. The mixture was left at room temperature for 30 min, and the absorbance was measured using a SoftMax^R Pro 6 (version 6.3) microplate reader at 517 nm. All the crude extracts were tested in triplicate.
The percentage of radical scavenging was calculated by the following formula:% Free RSA = [(ADPPH − Asample)/(ADPPH)] × 100(2) where ADPPH is the absorbance of the DPPH solution and Asample is the absorbance of the samples and DPPH. The ability of the crude extracts to inhibit 50% of the free radical (IC50) was extrapolated from a graph of % RSA against concentration.
Another assay deals with Vero cells. Kind of assay: MTT cytotoxicity assay. The class given is cell-based, African green monkey. The following applies: Chlorocebus sabaeus, 48 h, Vero monkey kidney cells, two days incubation, mean ± SD, n = 3. On the procedure: African green monkey (Vero) kidney cells (ATCC CCL-81, Cellonex, Johannesburg, South Africa) were cultured in Minimal Essential Medium (MEM), which consisted of Earle’s Balanced Salt Solution (EBSS) and L-Glutamine (2.0 mM) (Cytiva Hyclone, Marlborough, MA, USA) and was supplemented with 10% fetal bovine serum (FBS) and 1% penicillin/streptomycin (P/S, Biowest, Nuaille, France). These cells were incubated for 48 h at 37 °C in a 95% air and 5% CO2 humidified incubator (Nϋve, Ankara, Turkey). The cells were trypsinized with 0.25% trypsin/EDTA (Cytiva Hyclone, Marlborough, MA, USA) and split at a ratio of 1:5 for further passaging at 70 to 80% confluency. […]
The 3-(4,5-dimethylthiazol-2-yl)-2,5-diphenyltetrazolium bromide (MTT) cytotoxicity assay was determined as described by Mariri et al. (2024). The cytotoxic effects of the crude extracts of Lippia multiflora were evaluated against Vero cells. […] The mixture was kept in the dark for 15 min, and the absorbance was measured spectrophotometrically at 570 nm on a SpectraMax iD3 multi-mode microplate reader (Winooski, VT, USA). The cell viability was calculated as the percentage (%) of negative control (0.5% dimethyl sulfoxide; see Equation (3)).
The extracts were calculated using the following equation:(3) Cell viability%=Abssample−AbsBlank/Absnegative control−AbsBlank×100 where Abs is the absorbance.
(Formazan colour is commonly taken as a measure of viable cells.)

For assay [2] the following is noted: cited from earlier work.
For assay [3] the following is noted: cited from earlier work. The source holds these as a separate data set.
Details of assay [4]: method as in earlier work. Particulars: ref 65 (Gülçin et al. 2012); cited from earlier work.
On the set-up of assay [5]: method as in earlier work. The following applies: ref 65 (Gülçin et al. 2012); cited from earlier work. This is another data set of the same source.

As to `O=c1c(O)c(-c2ccc(O)c(O)c2)oc2cc(O)cc(O)c12` [Quercetin, quercetin], the “Reducing Power IC0.5” value in the assay “Reducing power assay” is 3.760 ± 2.979 ^a µg/mL. Also, the “DPPH IC50” value in assay [1] is reported as 37.361 ± 21.356 ^b µg/mL.
As a reminder, the IC50 is the concentration that inhibits the measured activity by half. In turn, `COc1cccc2c1C(=O)c1c(O)c3c(c(O)c1C2=O)C[C@@](O)(C(=O)CO)C[C@@H]3O[C@H]1C[C@H](N)[C@H](O)[C@H](C)O1` [Doxorubicin] had an IC50 in the assay with Vero cells of 4.97 ± 0.83 µg/mL (≈ 9.14 µM).
For the compound `O=C(O)c1cc(O)c(O)c(O)c1` [Gallic acid, gallic acid], in “Reducing power assay”, the “Reducing Power IC0.5” value is recorded as 8.210 ± 11.257 ^a µg/mL. Besides, in assay [1], the “DPPH IC50” value is 37.340 ± 17.529 ^ab µg/mL.
Consider `CCCCC[C@H](O)CC(=O)CCc1ccc(O)c(OC)c1` [Compound 11, 6-Gingerol], for which the “DPPH radical scavenging EC50” value in assay [2] (isolated from rhizome of Zingiber officinale, ref 67 (Wang et al. 2003)) is reported as 23.07 µg/mL.
With `C[C@@H]1O[C@@H](Oc2c(-c3ccc(O)c(O)c3)oc3cc(O)cc(O)c3c2=O)[C@H](O)[C@H](O)[C@H]1O` [Compound 10, Quercitrin], the “DPPH radical scavenging IC50” value in assay [2] (isolated from ethyl acetate stem of Lippia graveolens, ref 70 (González Güereca et al. 2007)) is 11.24 ± 1.10 µg/mL.
On to `COc1ccc(-c2coc3cc(O[C@@H]4O[C@H](CO)[C@@H](O)[C@H](O)[C@H]4O)ccc3c2=O)cc1` [Compound 8, Formononetin-7-O-glucoside (Ononin)], for which the “ABTS radical IC50” value in assay [3] (ref 62 (Zgórka et al. 2022)) was 30.30 ± 0.18 µg/mL. In assay [2] (ref 62 (Zgórka et al. 2022)), the “DPPH radical IC50” value was 30.18 ± 0.37 µg/mL.
`Oc1cc(O)c2c(c1)O[C@H](c1cc(O)c(O)c(O)c1)[C@H](O)C2` [Compound 14, (−)-Epigallocatechin]: the “DPPH radical scavenging IC50” value in assay [2] (from Japanese knotweed rhizome bark extract, ref 64 (Jug et al. 2021)) was 1.5 µg/mL^−1.
For the compound `O=C1O[C@H]([C@@H](O)CO)C(O)=C1O` [Ascorbic acid, ascorbic acid], the “Reducing Power IC0.5” value in the assay “Reducing power assay” is 0.355 ± 0.393 ^a µg/mL. The “DPPH IC50” value in assay [1] is reported as 44.308 ± 9.813 ^b µg/mL.
Take `COC(=O)C1=COC(C)C2CN3CCC4(C(=O)Nc5c4ccc(OC)c5OC)C3CC12` (stereo not drawn) [Compound 15, Isomajdine]: in assay [4], the “DMPD scavenging EC50” value is 32.09 µg/mL. In addition, in assay [3] (ref 65 (Gülçin et al. 2012)), the “ABTS scavenging EC50” value was 34.11 µg/mL. Moreover, in assay [5], the “Ferrous ion (Fe^2+) chelating activity EC50” value was 10.05 µg/mL.
